Data reported in PubChem BioAssay AID248 (DTP/NCI, 2004).
Several values for one entry are separate records, joined by “and”; a condition that tells them apart may be missing. Identical values can stand only once. Toxic doses and inconclusive results are not listed. Rule as the data show it: active = T/C of 150% or more; inactive = T/C below 125%.

System: L1210 leukemia ip in BDF1 mice, survival T/C
Experiment: NCI In Vivo Anticancer Drug Screen. Data for tumor model L1210 Leukemia (intraperitoneal) in B6D2F1 (BDF1) mice
Details: endpoint: mean survival time, higher = longer survival
Outline: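 Read-out is survival time, reported as the treated-group measurement over the vehicle-control measurement.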

[1] = dose: 100.0 mg/kg/injection, schedule: Q01DX001 (ip), vehicle: carboxymethylcellulose (CMC)
[2] = dose: 200.0 mg/kg/injection, schedule: Q01DX001 (ip), vehicle: carboxymethylcellulose (CMC)
[3] = dose: 400.0 mg/kg/injection, schedule: Q01DX001 (ip), vehicle: carboxymethylcellulose (CMC)
[4] = dose: 50.0 mg/kg/injection, schedule: Q01DX009 (ip), vehicle: saline
[5] = dose: 100.0 mg/kg/injection, schedule: Q01DX009 (ip), vehicle: saline
[6] = dose: 100.0 mg/kg/injection, schedule: Q04DX003 (ip), vehicle: saline
[7] = dose: 5.0 mg/kg/injection, schedule: Q01DX001 (ip), vehicle: carboxymethylcellulose (CMC)
[8] = dose: 10.0 mg/kg/injection, schedule: Q01DX001 (ip), vehicle: carboxymethylcellulose (CMC)
[9] = dose: 20.0 mg/kg/injection, schedule: Q01DX001 (ip), vehicle: carboxymethylcellulose (CMC)
[10] = dose: 40.0 mg/kg/injection, schedule: Q01DX001 (ip), vehicle: carboxymethylcellulose (CMC)
[11] = dose: 100.0 mg/kg/injection, schedule: Q04DX003 (ip), vehicle: other
[12] = dose: 200.0 mg/kg/injection, schedule: Q04DX003 (ip), vehicle: other
[13] = dose: 400.0 mg/kg/injection, schedule: Q04DX003 (ip), vehicle: other
[14] = dose: 100.0 mg/kg/injection, schedule: Q04DX002 (ip), vehicle: Klucel (hydroxypropylcellulose) (HPC)
[15] = dose: 200.0 mg/kg/injection, schedule: Q04DX002 (ip), vehicle: Klucel (hydroxypropylcellulose) (HPC)
[16] = dose: 400.0 mg/kg/injection, schedule: Q04DX002 (ip), vehicle: Klucel (hydroxypropylcellulose) (HPC)
[17] = dose: 50.0 mg/kg/injection, schedule: Q01DX001 (ip), vehicle: carboxymethylcellulose (CMC)
[18] = dose: 100.0 mg/kg/injection, schedule: Q01DX009 (ip), vehicle: Klucel (hydroxypropylcellulose) (HPC)
[19] = dose: 50.0 mg/kg/injection, schedule: Q01DX009 (ip), vehicle: saline with Tween-80
[20] = dose: 100.0 mg/kg/injection, schedule: Q01DX009 (ip), vehicle: saline with Tween-80
[21] = dose: 200.0 mg/kg/injection, schedule: Q01DX009 (ip), vehicle: saline with Tween-80

Measured: T/C

NC(=O)C1OC(n2cnc3c(N)ncnc32)C(O)C1O (configuration not stated)
inactive: dose: 0.09 mg/kg/injection, schedule: Q01DX009 (ip), vehicle: saline 101 % of control | dose: 0.19 mg/kg/injection, schedule: Q01DX005 (ip), vehicle: saline 114 % of control | dose: 0.19 mg/kg/injection, schedule: Q01DX009 (ip), vehicle: saline 100 % of control | dose: 0.39 mg/kg/injection, schedule: Q01DX009 (ip), vehicle: saline 107 % of control | dose: 0.78 mg/kg/injection, schedule: Q01DX009 (ip), vehicle: saline 103 % of control | dose: 1.56 mg/kg/injection, schedule: Q01DX009 (ip), vehicle: saline 114 % of control

OCn1nc(Cl)c2cc(Cl)ccc21
inactive: [1] 103 % of control | [2] 98 % of control | [3] 100 % of control

C[N+](C)(C)CCCBr
inactive: dose: 10.0 mg/kg/injection, schedule: Q01DX001 (ip), vehicle: saline 112 % of control | dose: 20.0 mg/kg/injection, schedule: Q01DX001 (ip), vehicle: saline 89 % of control

CN1CC=C(/C=C/c2cccc3ccccc23)CC1
inactive: dose: 25.0 mg/kg/injection, schedule: Q01DX009 (ip), vehicle: saline 100 % of control | [4] 103 % of control | [5] 114 % of control | [6] 103 % of control

CCOc1cc(/C=N\Nc2nncn2N)ccc1N(CCCl)CCCl
inactive: dose: 0.5 mg/kg/injection, schedule: Q01DX015 (ip), vehicle: carboxymethylcellulose (CMC) 109 % of control | dose: 1.0 mg/kg/injection, schedule: Q01DX015 (ip), vehicle: carboxymethylcellulose (CMC) 111 % of control | dose: 2.0 mg/kg/injection, schedule: Q01DX015 (ip), vehicle: carboxymethylcellulose (CMC) 116 % of control | dose: 4.0 mg/kg/injection, schedule: Q01DX015 (ip), vehicle: carboxymethylcellulose (CMC) 101 % of control and 109 % of control | [7] 98 % of control and 117 % of control | dose: 7.0 mg/kg/injection, schedule: Q01DX015 (ip), vehicle: carboxymethylcellulose (CMC) 107 % of control and 90 % of control | [8] 101 % of control | dose: 12.0 mg/kg/injection, schedule: Q01DX015 (ip), vehicle: carboxymethylcellulose (CMC) 98 % of control and 117 % of control | [9] 95 % of control and 106 % of control | dose: 20.0 mg/kg/injection, schedule: Q01DX015 (ip), vehicle: carboxymethylcellulose (CMC) 120 % of control | [10] 106 % of control

COc1ccc(OC)c(NC(=O)c2ccc(N(CCc3cnc4nc(NC(C)=O)[nH]c(=O)c4n3)C(=O)C(F)(F)F)cc2)c1
inactive: dose: 100.0 mg/kg/injection, schedule: Q01DX009 (ip), vehicle: carboxymethylcellulose (CMC) 104 % of control | [11] 97 % of control | dose: 200.0 mg/kg/injection, schedule: Q01DX009 (ip), vehicle: carboxymethylcellulose (CMC) 94 % of control | [12] 97 % of control | dose: 400.0 mg/kg/injection, schedule: Q01DX009 (ip), vehicle: carboxymethylcellulose (CMC) 94 % of control | [13] 92 % of control

Cc1cnc(NS(=O)(=O)c2ccc(N)cc2)nc1-c1ccccc1O
inactive: [14] 98 % of control | [15] 98 % of control | [16] 91 % of control

CC(Nc1nc(SCc2ccccc2)c2ncn(C3OC(CO)C(O)C3O)c2n1)C(=O)O (configuration not stated)
inactive: [17] 107 % of control | [1] 109 % of control | [2] 104 % of control | [3] 104 % of control

CN(CCO)Cc1ccc(Cl)cc1
inactive: dose: 150.0 mg/kg/injection, schedule: Q01DX015 (ip), vehicle: saline 91 % of control

O=C(O)/C(=C\c1ccc([N+](=O)[O-])cc1)CCc1ccccc1
inactive: [18] 91 % of control | dose: 200.0 mg/kg/injection, schedule: Q01DX009 (ip), vehicle: Klucel (hydroxypropylcellulose) (HPC) 92 % of control | dose: 400.0 mg/kg/injection, schedule: Q01DX009 (ip), vehicle: Klucel (hydroxypropylcellulose) (HPC) 92 % of control

CC(CC(c1ccccc1)c1ccccc1)[N+](C)(C)C (configuration not stated)
inactive: [7] 104 % of control | [8] 101 % of control | [9] 95 % of control | [10] 93 % of control | dose: 80.0 mg/kg/injection, schedule: Q01DX001 (ip), vehicle: carboxymethylcellulose (CMC) 98 % of control

COc1ccc(/C=N/NC(=O)CNC(=O)c2ccc(Cl)cc2Cl)cc1OC
inactive: [19] 91 % of control | [20] 86 % of control | [21] 86 % of control

CCOC(=O)CC(COC)C(C(=O)OCC)C(=O)OCC (configuration not stated)
inactive: dose: 100.0 mg/kg/injection, schedule: Q01DX009 (ip), vehicle: other 100 % of control | [11] 88 % of control | dose: 200.0 mg/kg/injection, schedule: Q01DX009 (ip), vehicle: other 100 % of control | [12] 94 % of control | dose: 400.0 mg/kg/injection, schedule: Q01DX009 (ip), vehicle: other 98 % of control | [13] 105 % of control

CC1(c2ccc(O)cc2)CCC(C(C)(C)c2ccc(O)cc2)CC1 (configuration not stated)
inactive: [20] 107 % of control | [21] 107 % of control

CC(C)=CCC/C(C)=C/C=C1C(=O)NC(=S)NC1=O
inactive: [19] 117 % of control | [20] 103 % of control | [21] 103 % of control

O/N=C/C=N/O.O/N=C/C=N/O.[Cl][Rh][Cl]
inactive: [4] 107 % of control | dose: 50.0 mg/kg/injection, schedule: Q04DX003 (ip), vehicle: saline 100 % of control | [5] 101 % of control | [6] 104 % of control | dose: 200.0 mg/kg/injection, schedule: Q01DX009 (ip), vehicle: saline 95 % of control | dose: 200.0 mg/kg/injection, schedule: Q04DX003 (ip), vehicle: saline 102 % of control | dose: 400.0 mg/kg/injection, schedule: Q01DX009 (ip), vehicle: saline 94 % of control | dose: 400.0 mg/kg/injection, schedule: Q04DX003 (ip), vehicle: saline 98 % of control

Cc1no[n+]([O-])c1NC(=O)OCc1ccccc1
inactive: [14] 98 % of control | [15] 102 % of control | [16] 98 % of control

N=C(N)SC1c2ccccc2-c2ccccc21
inactive: dose: 10.0 mg/kg/injection, schedule: Q04DX002 (ip), vehicle: Klucel (hydroxypropylcellulose) (HPC) 97 % of control | dose: 20.0 mg/kg/injection, schedule: Q04DX002 (ip), vehicle: Klucel (hydroxypropylcellulose) (HPC) 101 % of control | dose: 40.0 mg/kg/injection, schedule: Q04DX002 (ip), vehicle: Klucel (hydroxypropylcellulose) (HPC) 101 % of control

COC1=C(NCCc2ccccc2)C(=O)C(OC)=C(NCCc2ccccc2)C1=O
inactive: [17] 96 % of control | [1] 94 % of control | [2] 89 % of control | [3] 89 % of control

O=[N+]([O-])c1cc(Cl)ccc1O
inactive: dose: 100.0 mg/kg/injection, schedule: Q04DX003 (ip), vehicle: saline with Tween-80 91 % of control | dose: 200.0 mg/kg/injection, schedule: Q04DX003 (ip), vehicle: saline with Tween-80 107 % of control | dose: 400.0 mg/kg/injection, schedule: Q04DX003 (ip), vehicle: saline with Tween-80 96 % of control

CS(=O)(=O)NC[C@H](Cl)[C@@H](Cl)CNS(C)(=O)=O
inactive: dose: 100.0 mg/kg/injection, schedule: Q01DX001 (ip), vehicle: saline 100 % of control | dose: 200.0 mg/kg/injection, schedule: Q01DX001 (ip), vehicle: saline 102 % of control | dose: 400.0 mg/kg/injection, schedule: Q01DX001 (ip), vehicle: saline 91 % of control

Cc1cc(C(C)(C)C)c(O)c(C(C)(C)C)c1
inactive: dose: 25.0 mg/kg/injection, schedule: Q01DX009 (ip), vehicle: Klucel (hydroxypropylcellulose) (HPC) 110 % of control | dose: 50.0 mg/kg/injection, schedule: Q01DX009 (ip), vehicle: Klucel (hydroxypropylcellulose) (HPC) 103 % of control | [18] 113 % of control | dose: 100.0 mg/kg/injection, schedule: Q04DX003 (ip), vehicle: Klucel (hydroxypropylcellulose) (HPC) 103 % of control | dose: 200.0 mg/kg/injection, schedule: Q04DX003 (ip), vehicle: Klucel (hydroxypropylcellulose) (HPC) 114 % of control | dose: 400.0 mg/kg/injection, schedule: Q04DX003 (ip), vehicle: Klucel (hydroxypropylcellulose) (HPC) 95 % of control
